Measurements reported in ChEMBL document CHEMBL1681651, “A broad spectrum anticancer nucleoside with selective toxicity against human colon cells in vitro” (2011).

Key:
Format in all cases: functional
M14 = experiment: Growth inhibition of human M14 cells assessed as cell growth at 1 mM after 48 hrs by SRB assay; conditions: M14, 48 h, read-out: Activity
HT-29 = experiment: Growth inhibition of human HT-29 cells assessed as cell growth at 100 uM after 48 hrs by SRB assay; conditions: HT-29, 48 h, read-out: Activity
OVCAR-4 = experiment: Growth inhibition of human OVCAR4 cells assessed as cell growth at 0.1 uM after 48 hrs by SRB assay; conditions: OVCAR-4, 48 h, read-out: Activity
KM12 = experiment: Growth inhibition of human KM12 cells assessed as cell growth at 1 mM after 48 hrs by SRB assay; conditions: KM12, 48 h, read-out: Activity
A549 [1] = experiment: Growth inhibition of human A549 cells assessed as cell growth at 1 mM after 48 hrs by SRB assay; conditions: A549, 48 h, read-out: Activity
MCF7 [2] = experiment: Growth inhibition of human MCF7 cells assessed as cell growth at 0.1 uM after 48 hrs by SRB assay; conditions: MCF7, 48 h, read-out: Activity
SNB-19 = experiment: Growth inhibition of human SNB19 cells assessed as cell growth at 100 uM after 48 hrs by SRB assay; conditions: SNB-19, 48 h, read-out: Activity
A549 [3] = experiment: Growth inhibition of human A549 cells assessed as cell growth at 100 uM after 48 hrs by SRB assay; conditions: A549, 48 h, read-out: Activity
UO-31 [4] = experiment: Growth inhibition of human UO31 cells assessed as cell growth at 0.1 uM after 48 hrs by SRB assay; conditions: UO-31, 48 h, read-out: Activity
A498 [5] = experiment: Growth inhibition of human A498 cells assessed as cell growth at 1 mM after 48 hrs by SRB assay; conditions: A498, 48 h, read-out: Activity
Malme-3M [6] = experiment: Growth inhibition of human MALME-3M cells assessed as cell growth at 0.1 uM after 48 hrs by SRB assay; conditions: read-out: Activity
NCI-H226 = experiment: Growth inhibition of human NCI-H226 cells assessed as cell growth at 100 uM after 48 hrs by SRB assay; conditions: NCI-H226, 48 h, read-out: Activity
LOX IMVI = experiment: Growth inhibition of human LOXIMVI cells assessed as cell growth at 10 uM after 48 hrs by SRB assay; conditions: read-out: Activity
SK-MEL-5 = experiment: Growth inhibition of human SK-MEL-5 cells after 48 hrs by […] growth inhibition assay; conditions: SK-MEL-5, 48 h
NCI-H460 = experiment: Growth inhibition of human NCI-H460 cells assessed as cell growth at 1 uM after 48 hrs by SRB assay; conditions: NCI-H460, 48 h, read-out: Activity
SN12C [7] = experiment: Growth inhibition of human SN12C cells after 48 hrs by […] growth inhibition assay
TK-10 = experiment: Growth inhibition of human TK10 cells assessed as cell growth at 1 mM after 48 hrs by SRB assay; conditions: TK-10, 48 h, read-out: Activity
A498 [8] = experiment: Growth inhibition of human A498 cells assessed as cell growth at 10 uM after 48 hrs by SRB assay; conditions: A498, 48 h, read-out: Activity
MCF7 [9] = experiment: Growth inhibition of human MCF7 cells assessed as cell growth at 100 uM after 48 hrs by SRB assay; conditions: MCF7, 48 h, read-out: Activity
Malme-3M [10] = experiment: Growth inhibition of human MALME-3M cells assessed as cell growth at 1 mM after 48 hrs by SRB assay; conditions: read-out: Activity
HCT-15 = experiment: Growth inhibition of human HCT15 cells assessed as cell growth at 1 uM after 48 hrs by SRB assay; conditions: HCT-15, 48 h, read-out: Activity
OVCAR-3 = experiment: Growth inhibition of human OVCAR3 cells assessed as cell growth at 10 uM after 48 hrs by SRB assay; conditions: OVCAR-3, 48 h, read-out: Activity
COLO 205 = experiment: Growth inhibition of human COLO205 cells assessed as cell growth at 10 uM after 48 hrs by SRB assay; conditions: COLO 205, 48 h, read-out: Activity
CCRF-CEM [11] = experiment: Growth inhibition of human CCRF-CEM cells assessed as cell growth at 100 uM after 48 hrs by SRB assay; conditions: read-out: Activity
BT-549 = experiment: Growth inhibition of human BT549 cells assessed as cell growth at 1 uM after 48 hrs by SRB assay; conditions: BT-549, 48 h, read-out: Activity
SF-268 = experiment: Growth inhibition of human SF268 cells assessed as cell growth at 1 uM after 48 hrs by SRB assay; conditions: SF-268, 48 h, read-out: Activity
UO-31 [12] = experiment: Growth inhibition of human UO31 cells assessed as cell growth at 1 uM after 48 hrs by SRB assay; conditions: UO-31, 48 h, read-out: Activity
NCI/ADR-RES = experiment: Growth inhibition of human NCI/ADR-RES cells assessed as cell growth at 1 uM after 48 hrs by SRB assay; conditions: read-out: Activity
SK-MEL-2 = experiment: Growth inhibition of human SK-MEL-2 cells assessed as cell growth at 100 uM after 48 hrs by SRB assay; conditions: SK-MEL-2, 48 h, read-out: Activity
HCC 2998 = experiment: Growth inhibition of human HCC2998 cells assessed as cell growth at 0.1 uM after 48 hrs by SRB assay; conditions: HCC 2998, 48 h, read-out: Activity
CCRF-CEM [13] = experiment: Growth inhibition of human CCRF-CEM cells assessed as cell growth at 1 uM after 48 hrs by SRB assay; conditions: read-out: Activity
NCI-H522 = experiment: Growth inhibition of human NCI-H522 cells assessed as cell growth at 0.1 uM after 48 hrs by SRB assay; conditions: NCI-H522, 48 h, read-out: Activity
MCF7 [14] = experiment: Growth inhibition of human MCF7 cells assessed as cell growth at 10 uM after 48 hrs by SRB assay; conditions: MCF7, 48 h, read-out: Activity
MDA-MB-435 = experiment: Growth inhibition of human MDA-MB-435 cells after 48 hrs by SRB assay; conditions: MDA-MB-435, 48 h
NCI-H322M = experiment: Growth inhibition of human NCI-H322M cells assessed as cell growth at 100 uM after 48 hrs by SRB assay; conditions: read-out: Activity
SN12C [15] = experiment: Growth inhibition of human SN12C cells assessed as cell growth at 100 uM after 48 hrs by SRB assay; conditions: read-out: Activity
786-0 = experiment: Growth inhibition of human 786-0 cells assessed as cell growth at 1 mM after 48 hrs by SRB assay; conditions: 786-0, 48 h, read-out: Activity
[16] = read-out: LC50 (the source's name)
[17] = read-out: pLC50 (the source's name) (converted)

SMILES: CNC(=O)NC[C@H]1O[C@@H](n2cnc3c(NC(=O)Nc4ccccc4)ncnc32)[C@H](O[Si](C)(C)C(C)(C)C)[C@@H]1O[Si](C)(C)C(C)(C)C
- growth at 1000 µM (M14): -52%
- growth at 100 µM (HT-29): -80%
- growth at 0.1 µM (OVCAR-4): 106%
- growth at 1000 µM (KM12): -74%
- growth at 1000 µM (A549 [1]): -30%
- growth at 0.1 µM (MCF7 [2]): 99%
- growth at 100 µM (SNB-19): 29%
- growth at 100 µM (A549 [3]): 4%
- growth at 0.1 µM (UO-31 [4]): 87%
- growth at 1000 µM (A498 [5]): -76%
- growth at 0.1 µM (Malme-3M [6]): 105%
- growth at 100 µM (NCI-H226): -7%
- growth at 10 µM (LOX IMVI): 98%
- GI50 (SK-MEL-5; read-out: GI50): 1.98 µM
- CC50 (SK-MEL-5; [16]): 13.6 µM
- TGI (SK-MEL-5; read-out: TGI): 4.75 µM
- GI50 (SK-MEL-5; read-out: pGI50 (converted)): 2 µM
- CC50 (SK-MEL-5; [17]): 13.5 µM
- TGI (SK-MEL-5; read-out: pTGI (converted)): 4.79 µM
- growth at 1 µM (NCI-H460): 93%
- GI50 (SN12C [7]; read-out: GI50): 1.81 µM
- CC50 (SN12C [7]; [16]): 6.29 µM
- TGI (SN12C [7]; read-out: TGI): 3.38 µM
- GI50 (SN12C [7]; read-out: pGI50 (converted)): 1.82 µM
- CC50 (SN12C [7]; [17]): 6.31 µM
- TGI (SN12C [7]; read-out: pTGI (converted)): 3.39 µM
- growth at 1000 µM (TK-10): -2%
- growth at 10 µM (A498 [8]): 90%
- growth at 100 µM (MCF7 [9]): 6%
- growth at 1000 µM (Malme-3M [10]): -48%
- growth at 1 µM (HCT-15): 106%
- growth at 10 µM (OVCAR-3): 113%
- growth at 10 µM (COLO 205): 105%
- growth at 100 µM (CCRF-CEM [11]): 9%
- growth at 1 µM (BT-549): 112%
- growth at 1 µM (SF-268): 106%
- growth at 1 µM (UO-31 [12]): 97%
- growth at 1 µM (NCI/ADR-RES): 109%
- growth at 100 µM (SK-MEL-2): -36%
- growth at 0.1 µM (HCC 2998): 100%
- growth at 1 µM (CCRF-CEM [13]): 109%
- growth at 0.1 µM (NCI-H522): 92%
- growth at 10 µM (MCF7 [14]): 83%
- GI50 (MDA-MB-435; read-out: GI50): 3.41 µM
- LC50 (MDA-MB-435; read-out: LC50): > 100 µM
- TGI (MDA-MB-435; read-out: TGI): 29.1 µM
- GI50 (MDA-MB-435; read-out: pGI50 (converted)): 3.39 µM
- LC50 (MDA-MB-435; read-out: pLC50 (converted)): > 100 µM
- TGI (MDA-MB-435; read-out: pTGI (converted)): 28.8 µM
- growth at 100 µM (NCI-H322M): 39%
- growth at 100 µM (SN12C [15]): -87%
- growth at 1000 µM (786-0): -80%

SMILES: CNC(=O)OC[C@H]1O[C@@H](n2cnc3c(NC(=O)Nc4ccccc4)ncnc32)[C@H](O[Si](C)(C)C(C)(C)C)[C@@H]1O[Si](C)(C)C(C)(C)C
- growth at 10 µM (LOX IMVI): 87.4%
- growth at 10 µM (A498 [8]): 98.4%
- growth at 10 µM (OVCAR-3): 107%
- growth at 10 µM (COLO 205): 106%
- growth at 10 µM (MCF7 [14]): 87.8%
